# Measurements: patent publication US10710978B2, “STK4 inhibitors for treatment of hematologic malignancies” (Dana-Farber Cancer Institute, Inc., priority 2015, dated 2020)
# “And” between values parts separate entries of the source, which are not always exact repeats. Identical values can stand only once. Like-named read-outs stand apart in the source and are kept apart here.
# Key:
# Assay in all cases: KiNativ assay
# Format in all cases: binding
# Settings in all cases: H929 live cell
# AurA = AurA (Homo sapiens (Human), UniProt O14965)
# Experimental: (§1) Biochemical IC50s of the compounds of the present disclosure against various kinases were measured in a KiNativ assay. Compounds were screened in duplicate at 10 μM in H929 live cell. IC50 was measured via Mass spectroscopy (MS).
# TYK2 domain2 = TYK2 domain2 (Homo sapiens (Human), UniProt P29597)
# Experimental: as §1
# DGKH = DGKH (Homo sapiens (Human), UniProt Q86XP1)
# Experimental: as §1
# PLK1 = PLK1 (Homo sapiens (Human), UniProt P53350)
# Experimental: as §1
# MAP2K6 = MAP2K6 (Homo sapiens (Human), UniProt P52564)
# Experimental: as §1
# MAP2K4 = MAP2K4 (Homo sapiens (Human), UniProt P45985)
# Experimental: as §1
# CDC2 = CDC2 (Homo sapiens (Human), UniProt P06493)
# Experimental: as §1
# RSKL1 = RSKL1 (Homo sapiens (Human), UniProt Q96S38)
# Experimental: as §1
# MARK2, MARK3 = test system: MARK2, MARK3
# Experimental: as §1
# ILK = ILK (Homo sapiens (Human), UniProt Q13418)
# Experimental: as §1
# MST3 = MST3 (Homo sapiens (Human), UniProt Q9Y6E0)
# Experimental: as §1
# SGK3 = SGK3 (Homo sapiens (Human), UniProt Q96BR1)
# Experimental: as §1
# SRPK1 = SRPK1 (Homo sapiens (Human), UniProt Q96SB4)
# Experimental: as §1
# MST4 = test system: MST4
# Experimental: as §1
# MASTL = MASTL (Homo sapiens (Human), UniProt Q96GX5)
# Experimental: as §1
# CaMK2d = CaMK2d (Homo sapiens (Human), UniProt Q13557)
# Experimental: as §1
# TBK1 = TBK1 (Homo sapiens (Human), UniProt Q9UHD2)
# Experimental: as §1
# Erk2 = Erk2 (Homo sapiens (Human), UniProt P28482)
# Experimental: as §1
# PI4KB = PI4KB (Homo sapiens (Human), UniProt Q9UBF8)
# Experimental: as §1
# FRAP = FRAP (Homo sapiens (Human), UniProt P42345)
# Experimental: as §1
# GCK = GCK (Homo sapiens (Human), UniProt Q12851)
# Experimental: as §1
# CLK2 = CLK2 (Homo sapiens (Human), UniProt P49760)
# Experimental: as §1
# PIP5K3 = PIP5K3 (Homo sapiens (Human), UniProt Q9Y2I7)
# Experimental: as §1
# MAP3K4 = MAP3K4 (Homo sapiens (Human), UniProt Q9Y6R4)
# Experimental: as §1
# FER = FER (Homo sapiens (Human), UniProt P16591)
# Experimental: as §1
# JNK1, JNK2, JNK3 = test system: JNK1, JNK2, JNK3
# Experimental: as §1
# TLK1 = TLK1 (Homo sapiens (Human), UniProt Q9UKI8)
# Experimental: as §1
# PFTAIRE1 = PFTAIRE1 (Homo sapiens (Human), UniProt O94921)
# Experimental: as §1
# PITSLRE = test system: PITSLRE
# Experimental: as §1
# p38d, p38g = test system: p38d, p38g
# Experimental: as §1
# OSR1 = OSR1 (Homo sapiens (Human), UniProt O95747)
# Experimental: as §1
# eEF2K = eEF2K (Homo sapiens (Human), UniProt O00418)
# Experimental: as §1
# CK1a = CK1a (Homo sapiens (Human), UniProt P48729)
# Experimental: as §1
# [1] = range class, read-out: % inhibition
# PFTAIRE1, sequence (O94921 whole entry): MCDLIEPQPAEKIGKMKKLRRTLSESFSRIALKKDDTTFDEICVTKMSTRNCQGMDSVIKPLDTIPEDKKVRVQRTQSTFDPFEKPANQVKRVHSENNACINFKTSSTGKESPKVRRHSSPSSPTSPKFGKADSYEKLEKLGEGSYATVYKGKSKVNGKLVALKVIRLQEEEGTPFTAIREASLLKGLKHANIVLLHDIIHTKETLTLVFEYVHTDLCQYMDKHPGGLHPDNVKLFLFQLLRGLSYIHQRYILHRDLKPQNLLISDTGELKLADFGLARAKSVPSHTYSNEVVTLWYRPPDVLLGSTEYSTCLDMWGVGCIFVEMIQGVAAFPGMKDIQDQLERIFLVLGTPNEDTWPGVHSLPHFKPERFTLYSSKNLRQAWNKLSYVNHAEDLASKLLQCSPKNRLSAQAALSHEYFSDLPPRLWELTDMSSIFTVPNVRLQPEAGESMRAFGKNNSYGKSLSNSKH
# PFTAIRE1, sequence (Q8ND76 whole entry partner): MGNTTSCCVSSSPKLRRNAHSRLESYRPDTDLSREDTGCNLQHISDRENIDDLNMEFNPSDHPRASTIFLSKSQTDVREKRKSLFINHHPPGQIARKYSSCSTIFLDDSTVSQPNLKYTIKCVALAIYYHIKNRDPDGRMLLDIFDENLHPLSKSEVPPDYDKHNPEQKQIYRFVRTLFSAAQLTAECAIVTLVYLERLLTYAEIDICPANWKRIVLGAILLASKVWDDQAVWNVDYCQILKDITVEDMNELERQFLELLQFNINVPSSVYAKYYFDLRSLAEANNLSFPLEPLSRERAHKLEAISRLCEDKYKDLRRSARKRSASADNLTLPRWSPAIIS
# TYK2 domain2, sequence (P29597 whole entry, the tested form may be a part): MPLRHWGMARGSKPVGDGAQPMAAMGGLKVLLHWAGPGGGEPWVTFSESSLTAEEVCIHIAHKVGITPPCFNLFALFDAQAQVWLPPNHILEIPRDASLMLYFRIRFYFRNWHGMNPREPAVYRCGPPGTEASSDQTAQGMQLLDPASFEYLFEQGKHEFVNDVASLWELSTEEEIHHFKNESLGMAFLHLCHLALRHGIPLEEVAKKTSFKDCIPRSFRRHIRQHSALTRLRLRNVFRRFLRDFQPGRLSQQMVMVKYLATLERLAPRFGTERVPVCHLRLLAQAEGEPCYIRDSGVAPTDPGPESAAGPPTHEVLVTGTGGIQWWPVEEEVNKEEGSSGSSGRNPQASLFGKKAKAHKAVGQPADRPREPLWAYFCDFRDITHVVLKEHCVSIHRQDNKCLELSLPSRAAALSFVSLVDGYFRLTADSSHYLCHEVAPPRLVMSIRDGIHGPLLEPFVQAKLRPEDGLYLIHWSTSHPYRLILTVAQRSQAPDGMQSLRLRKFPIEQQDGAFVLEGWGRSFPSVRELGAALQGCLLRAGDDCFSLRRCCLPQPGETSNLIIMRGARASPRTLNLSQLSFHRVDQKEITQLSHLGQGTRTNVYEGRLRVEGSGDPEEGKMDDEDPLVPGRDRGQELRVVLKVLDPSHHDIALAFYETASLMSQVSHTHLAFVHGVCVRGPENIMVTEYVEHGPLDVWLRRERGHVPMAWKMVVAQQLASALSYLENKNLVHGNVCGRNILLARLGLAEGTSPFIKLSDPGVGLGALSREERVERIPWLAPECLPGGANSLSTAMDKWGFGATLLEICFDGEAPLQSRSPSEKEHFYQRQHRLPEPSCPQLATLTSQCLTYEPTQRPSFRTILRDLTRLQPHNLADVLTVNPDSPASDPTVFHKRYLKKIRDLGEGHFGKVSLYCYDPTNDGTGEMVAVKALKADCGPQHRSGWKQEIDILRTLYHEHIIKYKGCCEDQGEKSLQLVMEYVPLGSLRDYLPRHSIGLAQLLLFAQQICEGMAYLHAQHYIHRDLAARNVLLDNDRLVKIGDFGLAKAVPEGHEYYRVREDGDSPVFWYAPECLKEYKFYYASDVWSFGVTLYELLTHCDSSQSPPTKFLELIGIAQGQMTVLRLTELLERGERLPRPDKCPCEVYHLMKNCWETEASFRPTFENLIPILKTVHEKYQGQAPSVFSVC
# TLK1, sequence (Q9UKI8 whole entry): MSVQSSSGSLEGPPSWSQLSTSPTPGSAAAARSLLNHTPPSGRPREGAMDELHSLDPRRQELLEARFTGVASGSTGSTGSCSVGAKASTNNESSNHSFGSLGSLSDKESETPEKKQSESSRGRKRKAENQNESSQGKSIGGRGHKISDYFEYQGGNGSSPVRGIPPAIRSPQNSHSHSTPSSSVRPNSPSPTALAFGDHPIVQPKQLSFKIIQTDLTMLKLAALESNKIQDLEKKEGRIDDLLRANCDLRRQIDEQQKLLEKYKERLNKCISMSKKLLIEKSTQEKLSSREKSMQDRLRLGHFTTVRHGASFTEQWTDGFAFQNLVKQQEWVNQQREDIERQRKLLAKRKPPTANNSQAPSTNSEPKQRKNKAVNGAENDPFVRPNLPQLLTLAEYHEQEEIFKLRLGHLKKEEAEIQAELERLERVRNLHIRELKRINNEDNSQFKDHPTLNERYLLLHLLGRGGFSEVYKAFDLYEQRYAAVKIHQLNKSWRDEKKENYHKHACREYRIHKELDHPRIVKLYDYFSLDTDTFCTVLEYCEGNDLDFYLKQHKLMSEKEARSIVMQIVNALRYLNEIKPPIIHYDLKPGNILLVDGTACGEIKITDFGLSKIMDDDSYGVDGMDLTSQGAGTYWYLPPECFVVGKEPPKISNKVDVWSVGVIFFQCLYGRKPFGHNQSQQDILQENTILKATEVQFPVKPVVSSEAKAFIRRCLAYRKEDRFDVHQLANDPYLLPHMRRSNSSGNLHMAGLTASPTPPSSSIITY
# ILK, sequence (Q13418 whole entry): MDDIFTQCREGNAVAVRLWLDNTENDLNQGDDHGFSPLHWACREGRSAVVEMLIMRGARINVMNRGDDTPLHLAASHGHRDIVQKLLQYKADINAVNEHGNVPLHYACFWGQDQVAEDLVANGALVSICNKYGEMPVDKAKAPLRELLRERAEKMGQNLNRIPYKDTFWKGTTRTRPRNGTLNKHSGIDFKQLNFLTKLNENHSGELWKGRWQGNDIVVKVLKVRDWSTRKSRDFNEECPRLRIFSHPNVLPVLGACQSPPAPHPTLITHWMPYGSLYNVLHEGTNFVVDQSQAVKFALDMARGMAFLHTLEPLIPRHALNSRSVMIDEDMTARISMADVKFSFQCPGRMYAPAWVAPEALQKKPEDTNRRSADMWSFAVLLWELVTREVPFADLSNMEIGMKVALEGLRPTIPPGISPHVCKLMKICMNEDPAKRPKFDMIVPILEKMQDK
# MST3, sequence (Q9Y6E0 whole entry): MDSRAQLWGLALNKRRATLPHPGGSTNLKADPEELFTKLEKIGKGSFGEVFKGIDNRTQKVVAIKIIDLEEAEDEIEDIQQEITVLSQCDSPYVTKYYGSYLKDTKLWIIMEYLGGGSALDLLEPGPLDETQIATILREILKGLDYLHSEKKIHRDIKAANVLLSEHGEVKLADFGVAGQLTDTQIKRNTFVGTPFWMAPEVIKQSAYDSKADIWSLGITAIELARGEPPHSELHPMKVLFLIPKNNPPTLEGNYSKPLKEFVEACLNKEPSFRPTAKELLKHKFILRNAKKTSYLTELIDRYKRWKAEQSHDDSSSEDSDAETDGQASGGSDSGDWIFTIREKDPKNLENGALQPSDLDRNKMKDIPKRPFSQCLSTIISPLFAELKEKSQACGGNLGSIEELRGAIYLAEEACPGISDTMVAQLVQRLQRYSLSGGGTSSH
# AurA, sequence (O14965 whole entry): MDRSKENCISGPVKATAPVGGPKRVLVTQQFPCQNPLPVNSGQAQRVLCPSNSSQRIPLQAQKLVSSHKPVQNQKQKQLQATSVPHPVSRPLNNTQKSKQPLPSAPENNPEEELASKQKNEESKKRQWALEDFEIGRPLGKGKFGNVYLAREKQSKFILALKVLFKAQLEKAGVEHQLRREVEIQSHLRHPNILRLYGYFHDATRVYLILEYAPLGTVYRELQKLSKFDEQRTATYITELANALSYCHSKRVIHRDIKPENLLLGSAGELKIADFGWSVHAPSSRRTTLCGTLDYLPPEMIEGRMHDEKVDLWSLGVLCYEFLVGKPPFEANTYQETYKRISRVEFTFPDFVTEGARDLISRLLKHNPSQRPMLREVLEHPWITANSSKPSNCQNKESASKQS
# PI4KB, sequence (Q9UBF8 whole entry): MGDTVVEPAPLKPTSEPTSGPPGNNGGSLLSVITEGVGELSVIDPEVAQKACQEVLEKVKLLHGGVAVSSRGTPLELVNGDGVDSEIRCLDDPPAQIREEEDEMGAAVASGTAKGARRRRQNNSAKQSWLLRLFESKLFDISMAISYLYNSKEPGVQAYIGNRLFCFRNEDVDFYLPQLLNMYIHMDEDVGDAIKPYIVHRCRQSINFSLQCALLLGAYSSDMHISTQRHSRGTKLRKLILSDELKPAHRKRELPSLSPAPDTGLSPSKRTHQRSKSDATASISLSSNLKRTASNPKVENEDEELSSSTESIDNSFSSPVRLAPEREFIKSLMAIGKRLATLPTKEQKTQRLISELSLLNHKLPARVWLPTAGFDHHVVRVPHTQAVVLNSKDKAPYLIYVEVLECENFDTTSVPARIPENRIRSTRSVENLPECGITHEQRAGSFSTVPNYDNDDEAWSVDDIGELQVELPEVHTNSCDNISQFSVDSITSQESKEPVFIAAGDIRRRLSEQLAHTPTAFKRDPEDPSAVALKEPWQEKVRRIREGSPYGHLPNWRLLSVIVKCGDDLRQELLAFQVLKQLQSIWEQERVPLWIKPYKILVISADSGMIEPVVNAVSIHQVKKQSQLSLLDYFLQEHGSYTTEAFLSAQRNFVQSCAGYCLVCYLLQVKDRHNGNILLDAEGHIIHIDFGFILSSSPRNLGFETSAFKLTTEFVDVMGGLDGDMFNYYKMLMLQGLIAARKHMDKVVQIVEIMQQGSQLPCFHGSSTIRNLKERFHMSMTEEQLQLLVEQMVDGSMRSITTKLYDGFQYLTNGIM
structure (smiles),measurement,setting,value
"Nc1ncc(-c2cccc([N+](=O)[O-])c2F)cc1-c1ccc2c(c1)CCNC2=O [Compound I-9, 6-(2-amino-5-(2-fluoro-3-nitrophenyl)pyridin-3-yl)-3,4-dihydroisoquinolin-1(2H)-one]",% inhibition (range),AurA; 10 μM,50-75% and 75-90%
same,inhibition (10 μM),AurA,75.7%
same,inhibition at 10 µM,AurA; read-out: inhibition (10 μM),68.5%
same,inhibition at 10 µM,TYK2 domain2; read-out: % inhibition (range),0%
same,inhibition at 10 µM,TYK2 domain2; read-out: inhibition (10 μM),29.9%
same,inhibition at 10 µM,DGKH; read-out: inhibition (10 μM),44.2%
same,inhibition at 10 µM,PLK1; read-out: % inhibition (range),0%
same,inhibition at 10 µM,PLK1; read-out: inhibition (10 μM),14.2%
same,inhibition at 10 µM,MAP2K6; read-out: % inhibition (range),0%
same,inhibition at 10 µM,MAP2K6; read-out: inhibition (10 μM),6.8%
same,inhibition at 10 µM,MAP2K4; read-out: % inhibition (range),50 to 75%
same,inhibition at 10 µM,MAP2K4; read-out: inhibition (10 μM),72.9%
same,inhibition at 10 µM,CDC2; read-out: % inhibition (range),0%
same,inhibition at 10 µM,CDC2; read-out: inhibition (10 μM),-24.7%
same,inhibition at 10 µM,RSKL1; read-out: % inhibition (range),0%
same,inhibition at 10 µM,RSKL1; read-out: inhibition (10 μM),0.2%
same,% inhibition (range),"MARK2, MARK3; 10 μM",50-75%
same,inhibition (10 μM),"MARK2, MARK3",70.2%
same,inhibition at 10 µM,ILK; read-out: % inhibition (range),0%
same,inhibition at 10 µM,ILK; read-out: inhibition (10 μM),-19%
same,inhibition at 10 µM,MST3; read-out: % inhibition (range),35 to 50%
same,inhibition at 10 µM,MST3; read-out: inhibition (10 μM),40.4%
same,inhibition at 10 µM,SGK3; read-out: % inhibition (range),50 to 75%
same,inhibition at 10 µM,SGK3; read-out: inhibition (10 μM),51.6%
same,inhibition at 10 µM,SRPK1; read-out: % inhibition (range),0%
same,inhibition at 10 µM,SRPK1; read-out: inhibition (10 μM),32.8%
same,inhibition (10 μM),MST4,47.0%
same,inhibition at 10 µM,MASTL; read-out: % inhibition (range),0%
same,inhibition at 10 µM,MASTL; read-out: inhibition (10 μM),-18.4%
same,inhibition at 10 µM,CaMK2d; read-out: % inhibition (range),0%
same,inhibition at 10 µM,CaMK2d; read-out: inhibition (10 μM),-5.7%
same,inhibition at 10 µM,TBK1; read-out: % inhibition (range),0%
same,inhibition at 10 µM,TBK1; read-out: inhibition (10 μM),23.7%
same,inhibition at 10 µM,Erk2; read-out: % inhibition (range),50 to 75%
same,inhibition at 10 µM,Erk2; read-out: inhibition (10 μM),60.2%
same,inhibition at 10 µM,PI4KB; read-out: % inhibition (range),0%
same,inhibition at 10 µM,PI4KB; read-out: inhibition (10 μM),-13.8%
same,inhibition at 10 µM,FRAP; read-out: % inhibition (range),50 to 75%
same,inhibition at 10 µM,FRAP; read-out: inhibition (10 μM),72.7%
same,inhibition at 10 µM,GCK; read-out: inhibition (10 μM),91.5%
same,inhibition at 10 µM,CLK2; read-out: % inhibition (range),> 90%
same,inhibition at 10 µM,CLK2; read-out:,> 95%
same,inhibition at 10 µM,PIP5K3; read-out: % inhibition (range),> 90%
same,inhibition at 10 µM,PIP5K3; read-out: inhibition (10 μM),92%
same,inhibition at 10 µM,MAP3K4; read-out: % inhibition (range),0%
same,inhibition at 10 µM,MAP3K4; read-out: inhibition (10 μM),-9.6%
same,inhibition at 10 µM,FER; read-out: % inhibition (range),0%
same,inhibition at 10 µM,FER; read-out: inhibition (10 μM),27.4%
same,% inhibition (range),"JNK1, JNK2, JNK3; 10 μM",0.0%
same,inhibition (10 μM),"JNK1, JNK2, JNK3",−24.2%
same,inhibition at 10 µM,TLK1; read-out: % inhibition (range),0%
same,inhibition at 10 µM,TLK1; read-out: inhibition (10 μM),28.8%
same,inhibition at 10 µM,PFTAIRE1; read-out: % inhibition (range),50 to 75%
same,inhibition at 10 µM,PFTAIRE1; read-out: inhibition (10 μM),74.6%
same,% inhibition (range),PITSLRE; 10 μM,35-50%
same,inhibition (10 μM),PITSLRE,38.9%
same,% inhibition (range),"p38d, p38g; 10 μM",0.0%
same,inhibition (10 μM),"p38d, p38g",−11.0%
same,inhibition at 10 µM,OSR1; read-out: % inhibition (range),0%
same,inhibition at 10 µM,OSR1; read-out: inhibition (10 μM),-11.8%
same,inhibition at 10 µM,eEF2K; read-out: % inhibition (range),0%
same,inhibition at 10 µM,eEF2K; read-out: inhibition (10 μM),-94.7%
same,inhibition at 10 µM,CK1a; read-out: % inhibition (range),75 to 90%
same,inhibition at 10 µM,CK1a; read-out: inhibition (10 μM),84.6%
"Nc1ncc(-c2ccc(NS(=O)(=O)C3CC3)cc2OC2CCCCC2)cc1-c1ccc2c(c1)CCNC2=O [Compound I-65, N-(4-(6-amino-5-(1-oxo-1,2,3,4-tetrahydroisoquinolin-6-yl)pyridin-3-yl)-3-(cyclohexyloxy)phenyl) cyclopropanesulfonamide]",inhibition (10 μM),AurA,40.2%
same,inhibition at 10 µM,AurA; [1],35 to 40%
same,inhibition at 10 µM,AurA; read-out: inhibition (10 μM),45.4%
same,inhibition at 10 µM,TYK2 domain2; [1],0%
same,inhibition at 10 µM,TYK2 domain2; read-out: inhibition (10 μM),-8.4%
same,inhibition at 10 µM,DGKH; [1],0%
same,inhibition at 10 µM,DGKH; read-out: inhibition (10 μM),7.3%
same,inhibition at 10 µM,PLK1; [1],0%
same,inhibition at 10 µM,PLK1; read-out: inhibition (10 μM),-10.1%
same,inhibition at 10 µM,MAP2K6; [1],0%
same,inhibition at 10 µM,MAP2K6; read-out: inhibition (10 μM),-15%
same,inhibition at 10 µM,MAP2K4; [1],0%
same,inhibition at 10 µM,MAP2K4; read-out: inhibition (10 μM),-15.3%
same,inhibition at 10 µM,CDC2; [1],0%
same,inhibition at 10 µM,CDC2; read-out: inhibition (10 μM),-0.5%
same,inhibition at 10 µM,RSKL1; [1],0%
same,inhibition at 10 µM,RSKL1; read-out: inhibition (10 μM),-10.6%
same,% inhibition,"MARK2, MARK3; 10 μM, range class",0.0%
same,inhibition (10 μM),"MARK2, MARK3",−17.2%
same,inhibition at 10 µM,ILK; [1],0%
same,inhibition at 10 µM,ILK; read-out: inhibition (10 μM),-35%
same,inhibition at 10 µM,MST3; [1],0%
same,inhibition at 10 µM,MST3; read-out: inhibition (10 μM),31.5%
same,inhibition at 10 µM,SGK3; [1],0%
same,inhibition at 10 µM,SGK3; read-out: inhibition (10 μM),13.5%
same,inhibition at 10 µM,SRPK1; [1],0%
same,inhibition at 10 µM,SRPK1; read-out: inhibition (10 μM),-25.4%
same,% inhibition,"MST4; 10 μM, range class",35-40%
same,inhibition (10 μM),MST4,47.7%
same,inhibition at 10 µM,MASTL; [1],0%
same,inhibition at 10 µM,MASTL; read-out: inhibition (10 μM),-9.6%
same,inhibition at 10 µM,CaMK2d; [1],0%
same,inhibition at 10 µM,CaMK2d; read-out: inhibition (10 μM),4.2%
same,inhibition at 10 µM,TBK1; [1],50 to 75%
same,inhibition at 10 µM,TBK1; read-out: inhibition (10 μM),74.6%
same,inhibition at 10 µM,Erk2; [1],0%
same,inhibition at 10 µM,Erk2; read-out: inhibition (10 μM),-29.6%
same,inhibition at 10 µM,PI4KB; [1],0%
same,inhibition at 10 µM,PI4KB; read-out: inhibition (10 μM),8.6%
same,inhibition at 10 µM,FRAP; [1],35 to 40%
same,inhibition at 10 µM,FRAP; read-out: inhibition (10 μM),47.9%
same,inhibition at 10 µM,GCK; [1],> 90%
same,inhibition at 10 µM,GCK; read-out: inhibition (10 μM),92.5%
same,inhibition at 10 µM,CLK2; [1],50 to 75%
same,inhibition at 10 µM,CLK2; read-out:,69.4%
same,inhibition at 10 µM,PIP5K3; [1],> 90%
same,inhibition at 10 µM,PIP5K3; read-out: inhibition (10 μM),91.7%
same,inhibition at 10 µM,MAP3K4; [1],0%
same,inhibition at 10 µM,MAP3K4; read-out: inhibition (10 μM),10.3%
same,inhibition at 10 µM,FER; [1],50 to 75%
same,inhibition at 10 µM,FER; read-out: inhibition (10 μM),63.6%
same,% inhibition,"JNK1, JNK2, JNK3; 10 μM, range class",0.0%
same,inhibition (10 μM),"JNK1, JNK2, JNK3",6.4%
same,inhibition at 10 µM,TLK1; [1],0%
same,inhibition at 10 µM,TLK1; read-out: inhibition (10 μM),-1.2%
same,inhibition at 10 µM,PFTAIRE1; [1],0%
same,inhibition at 10 µM,PFTAIRE1; read-out: inhibition (10 μM),-5.1%
same,% inhibition,"PITSLRE; 10 μM, range class",0.0%
same,inhibition (10 μM),PITSLRE,−17.5%
same,% inhibition,"p38d, p38g; 10 μM, range class",0.0%
same,inhibition (10 μM),"p38d, p38g",−8.5%
same,inhibition at 10 µM,OSR1; [1],0%
same,inhibition at 10 µM,OSR1; read-out: inhibition (10 μM),26.8%
same,inhibition at 10 µM,eEF2K; [1],0%
same,inhibition at 10 µM,eEF2K; read-out: inhibition (10 μM),-21.7%
same,inhibition at 10 µM,CK1a; [1],0%
same,inhibition at 10 µM,CK1a; read-out: inhibition (10 μM),-65.1%
